In US20100143449A1, “ANALGESIC COMPOSITION OF TOPICALLY APPLIED NONSTEROIDAL ANTIINFLAMMATORY DRUGS AND OPIOIDS” (priority 2007, published 2010):
“Also recorded” adds a separate entry of the source.

Test system: Male Crl:CD-1 (ICR) BR mice
Assay: Radiant heat tail-flick assay after topical drug application to the tail
Format: in vivo
Conditions: for analgesia in % of mice: alone or together, 2 min; for topical analgesic effect (in words) / time of maximal analgesic effect after topical application / duration of analgesia: single drug; for topical analgesic effect (in words) / ED 50 value, propylene glycol alone / ED 50 value, propylene glycol and lauric acid / time of maximal analgesic effect after topical application: topical; for ED 50 value, propylene glycol alone / ED 50 value, propylene glycol and lauric acid: tail immersed 2 min, tested immediately afterward; for ED 50 value, propylene glycol alone: vehicle propylene glycol alone; for ED 50 value, propylene glycol and lauric acid: vehicle propylene glycol and lauric acid (10:1); for duration of analgesia: FIG. 6: S-ibuprofen 4.8 mmol, diclofenac 3.5 mmol, 2 min exposure
Description: All in vivo studies were carried out in accordance with the Declaration of Helsinki and with the Guide for Care and Use of Laboratory Animals, as adopted and promulgated by the Estonian Põllumajandusministeerium. Male Crl:CD-1® (ICR) BR mice (20-25 g) were purchased from Charles River Laboratories (Germany) and were housed in a 12:12-h light-dark cycle temperature-controlled room with food and water freely available. Drugs were obtained from Sigma (St. Louis, Mo., USA). […] Briefly, the distal portion of the tail (2-3 cm) was immersed in a propylene glycol/dH2O (10:1 ratio) alone or propylene glycol and lauric acid combination (10:1) solution containing the indicated drugs for the stated time, usually 2 min.). Analgesia was defined quantitatively as tail-flick latency for an individual animal that was twice its baseline latency or greater using tail flick apparatus (Ugo Basile, Italy). […] ED50 values were determined with GraphPad Software.

[1] = FIG. 9A: methadone 0.7 mmol, diclofenac 0.9 mmol
[2] = FIG. 10A: methadone 0.7 mmol, S-ibuprofen 1.2 mmol
[3] = FIG. 7A: morphine 0.15 mmol, diclofenac 0.9 mmol
[4] = FIG. 11B: hydrocodone 0.6 mmol, S-ibuprofen 1.2 mmol

SMILES | dose response shift to left of ED50 on addition of lauric acid to propylene glycol | analgesia in % of mice [1] | analgesia in % of mice [2] | topical analgesic effect (in words) | ED 50 value, propylene glycol alone | ED 50 value, propylene glycol and lauric acid | analgesia in % of mice [3] | time of maximal analgesic effect after topical application | duration of analgesia | analgesia in % of mice [4]
CCC(=O)C(CC(C)N(C)C)(c1ccccc1)c1ccccc1 (stereo not shown) [Methadone, methadone] | 6.7 fold | 30% | 25% | dose dependent (FIG. 4A) and naloxone sensitive | 6.7 mmol | 1.0 mmol | – | – | – | –
O=C(O)Cc1ccccc1Nc1c(Cl)cccc1Cl [Diclofenac, diclofenac] | – | 30% | – | dose dependent analgesia | 3.3 mmol | 1.1 mmol | 30% | 2 min | 90 min | –
COc1ccc2c3c1O[C@H]1C(=O)CC[C@H]4[C@@H](C2)N(C)CC[C@]314 [Hydrocodone, hydrocodone] | – | – | – | most potent analgesic activity; also recorded: dose dependent response | 1.6 mmol | 1.2 mmol | – | – | – | 20%
CN1CC[C@]23c4c5ccc(O)c4O[C@H]2[C@@H](O)C=C[C@H]3[C@H]1C5 [Morphine, morphine] | – | – | – | – | 7.6 mmol | – | 20% | – | – | –
CCN(CC)CC(=O)Nc1c(C)cccc1C [Lidocaine, lidocaine] | – | – | – | no differences in ED50; also recorded: significant and long acting analgesic effects | 2.2 mmol | – | – | – | – | –
CC(C)Cc1ccc([C@H](C)C(=O)O)cc1 [S-ibuprofen] | – | – | 30% | dose dependent analgesia | 9.3 mmol | 2.1 mmol | – | 2 min | 90 min | 30%
